This note sets out measurements from patent US20220308068A1, “BIOMARKER IN OSTEOPOROSIS INTERVENTION THERAPY BY BONE PEPTIDE, SCREENING METHOD AND USE THEREOF” (Institute of Food Science and Technology, Chinese Academy …, priority 2019, published 2022).

This test relates to ovariectomized osteoporosis rat model. In words: three-point bending test of left femurs. Format: in vivo, SD rats. To be noted: left femur; treatment groups and ES group vs Model group. On the procedure: 1, the construction of ovariectomized rats models: SD rats are kept in a clean environment under a controlled room temperature at 25±2° C. and alternates 12/12 light and dark every day, and the SD rats feed freely. After one week adaptive feeding, randomly select 8 female rats, anesthetize them with 1% (v/v) pentobarbital sodium (40 mg/kg BW), and remove a little fat near ovaries. The remaining 40 rats are ovariectomized after being anesthetized with pentobarbital sodium. The recovery situation is observed in a 4-week recovery period, and their weight changes are detected. These are prepared by the applicant in advance. (any research about metabolic fingerprint changes of ovariectomized osteoporotic rats after intervention with bone peptide have not been reported according to the existing literature). 2, animal grouping and samples collection: the 8 female rats with a little fat near ovaries removed are selected as a sham-operated group, the ovariectomized 40 rats are randomly divided into 5 groups with 8 rats in each group, and are named by a negative control group, a positive control group, a low-concentration treatment group, a medium-concentration treatment group and a high-concentration treatment group. […]

For `C[C@]12CC[C@@H]3c4ccc(O)cc4CC[C@H]3[C@@H]1CC[C@@H]2O` [ES, 17β-estradiol], the “elastic load (Ed)” value was “on a rise trend” and the “fracture load (Fd)” value is on record as “on a rise trend”.
